Experimental data as given in US11136297B2, “Compositions and methods for treating cancer” (THE REGENTS OF THE UNIVERSITY OF CALIFORNIA, priority 2016, dated 2021).
Values belong to the molecule of their own block, whether it stands above or below them.

Legend:
Format in all cases: binding
H-Ras(M72C) GppNHp = H-Ras(M72C) GppNHp (Homo sapiens, UniProt P01112, M72C); assay: βME50 and percent labeling of tethering fragments, GppNHp state; parameters: Labeling studies were conducted using the 1-166 H-Ras(M72C) construct containing all endogenous cysteines; His6; made in house; host or cells: Escherichia coli BL21(DE3); conditions: disulfide tethering at Cys 72
H-Ras(M72C) GppNHp, sequence (P01112 1-166 M72C): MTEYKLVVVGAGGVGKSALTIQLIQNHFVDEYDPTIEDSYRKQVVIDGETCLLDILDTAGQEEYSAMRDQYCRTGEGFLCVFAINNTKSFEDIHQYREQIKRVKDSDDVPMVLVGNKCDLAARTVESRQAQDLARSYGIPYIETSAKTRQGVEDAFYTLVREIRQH
Experimental: FIG. 32. […] Percent labeling against H-Ras(M72C) GDP and GppNHp at the screening βME concentration (1 mM) are graphed.
(§1) A tethering library of 960 disulfides were screened against 1-169 K-Ras(M72C) GDP using intact protein mass spectrometry to monitor percent modification (See Methods, and FIG. 37). […] To better prioritize tethering fragments, a βME50 value (the concentration of βME needed to reduce disulfide fragment modification to 50%) was determined for each compound. A higher βME50 value corresponds to a better fragment as it can bind with increasing concentrations of competitive thiol (Erlanson et al., 2004; Yang et al., 2009).

1-169 K-Ras(M72C) GDP = target: T1, 1-169 K-Ras(M72C) GDP (Homo sapiens, UniProt P01116, M72C); assay: Disulfide tethering screen, percent modification by intact protein mass spectrometry; conditions: screening βME 1 mM
T1 construct: Untagged recombinant 1-169 K-Ras(M72C) GDP; His6 (cleaved yes); made in house; host or cells: Escherichia coli BL21(DE3)
Source text: In some embodiments, a library of disulfide compounds may be screened against a cysteine-containing protein in the presence of a reducing agent such as β-mercaptoethanol (BME). Compounds with complementary binding contacts with a region of the protein near the cysteine may shift the disulfide exchange equilibrium away from BME modification of the cysteine thiol and enhance the ratio of the hit ligand bound to the cysteine. The resulting mass change of the protein can be readily detected by mass spectrometry, and the percentage of modified protein can be used as a measure of potency. Compounds which exchange with the cysteine without conferring affinity should exchange with reducing agent equally well and will not shift the equilibrium toward protein modification. The potency of various compounds at a given concentration of BME may be compared by calculating the dose-response 50 (DR50), which is the concentration of compound at which the protein becomes 50% modified.
as §1, with “A higher βME50 value corresponds to a better fragment as it can bind with increasing concentrations of competitive thiol (Erlanson et al., 2004; Yang et al., 2009).” left out

[1] = target: T2, full-length wild-type K-Ras (Homo sapiens, UniProt P01116); assay: Disulfide fragment labeling of full-length wild-type K-Ras (Cys 72 selectivity); conditions: wild-type K-Ras contains 4 native cysteine residues
T2 construct: His6; made in house; host or cells: Escherichia coli BL21(DE3)

K-Ras(M72C) GDP = target: T3, K-Ras(M72C) GDP (Homo sapiens, UniProt P01116, M72C); assay: βME50 determination of tethering fragments; conditions: relative to 2C07
T3 construct: Untagged recombinant 1-169 K-Ras(M72C) GDP; His6 (cleaved yes); made in house; host or cells: Escherichia coli BL21(DE3)
Experimental: as §1
We next explored small chemical modifications to 2C07.

[2] = target: T4, H-Ras(M72C) bound to either GDP or GppNHp (Homo sapiens, UniProt P01112, M72C); assay: Electrophile labeling experiments (percent modification by whole protein LC/MS); conditions: 4 μM H-Ras(M72C) GDP or GppNHp, 100 μM electrophile, 24 hours
T4 construct: Labeling studies were conducted using the 1-166 H-Ras(M72C) construct containing all endogenous cysteines; His6; made in house; host or cells: Escherichia coli BL21(DE3)
T4 sequence (P01112 1-166 M72C): as above
Experimental: Electrophile Labeling Experiments.
Each reaction was analyzed in a 96 well plate format for analysis by LC/MS. Total reaction volumes were 25 μL for single time point labeling experiments and 200 uL for full 24-hour time courses. 25 μL reactions were made in the wells of a V-bottom 96 well plate and 200 uL reactions were made in 1.25 mL eppendorf tubes. All labeling reactions were conducted in Gel Filtration Buffer (20 mM HEPES (pH 7.5), 150 mM NaCl) with no added reductant at room temperature. […] Electrophile stocks were made in DMSO at 10 mM, aliquoted, and frozen. Labeling reactions were started by the addition of the desired volume of 10 mM electrophile stock and mixed thoroughly by pipette. General screening of new electrophiles was done at 100 μM electrophile in triplicate and sampled as a single time point after 24 hours of incubation. For Compound 3, labeling time courses were conducted at 20 μM compound with sampling done every 2 hours for the first 10 hours of incubation and continued after overnight incubation until the protein was fully modified. Reactions were allowed to sit at room temperature in the dark (either covered in aluminum foil or in a bench drawer) until the desired time point was reached. For 24-hour single point labeling experiments, the reaction was directly sampled from the 96 well plate and analyzed by LC/MS. For experiments with multiple time points, 22.5 μL aliquots of the 200 μL master reaction were sampled and quenched by the addition of 2.5 μL of 2% formic acid (also made in Gel Filtration Buffer). This 25 μL quenched sample was then analyzed by LC/MS and the remaining master reaction was allowed to continue reacting after gentle mixing by pipette. The percent modification was analyzed by electrospray mass spectrometry using a Waters Acquity UPLC/ESI-TQD with a 2.1×50 mm Acquity UPLC BEH300 C4 column.

labeling of H-Ras(M72C) GppNHp (H-Ras(M72C) GppNHp): labeled | percent modification (1-169 K-Ras(M72C) GDP): 52.8% | modification of full-length wild-type K-Ras [1]: did not modify
SMILES: CN(C)CCSSCCCNC(=O)C(=O)c1c[nH]c2ccccc12 [Compound 2B02, N-(3-((2-(dimethylamino)ethyl)disulfanyl)propyl)-2-(1H-indol-3-yl)-2-oxoacetamide]

change in βME50 (K-Ras(M72C) GDP): small decrease
SMILES: COc1ccc(-n2ncc(C(=O)NCCCCSSCCN(C)C)c2C(F)(F)F)cc1 [Compound 2C07b, N-(4-((2-(dimethylamino)ethyl)disulfanyl)butyl)-1-(4-methoxyphenyl)-5-(trifluoromethyl)-1H-pyrazole-4-carboxamide]

Percent modification (labeling of Cys 72) [2]: no detectable labeling
SMILES: C=CC(=O)Nc1ccc(NC(=O)c2cnn(-c3ccc(OC)cc3)c2C(F)(F)F)cc1 [Compound 1, N-(4-acrylamidophenyl)-1-(4-methoxyphenyl)-5-(trifluoromethyl)-1H-pyrazole-4-carboxamide]

SMILES: COc1ccc(-n2cc(C(=O)NCCCSSCCN(C)C)cn2)cc1 [Compound 2C07c, N-(3-((2-(dimethylamino)ethyl)disulfanyl)propyl)-1-(4-methoxyphenyl)-1H-pyrazole-4-carboxamide]
change in βME50 (K-Ras(M72C) GDP): drastic decrease
